Read-outs that look alike come from different tables or passages of the source.
Legend:
[1] = Stability: test compounds heated at 100° C. for 8 hours; assay type: physicochemical; conditions: for Percent remainder (%) / Changes in appearance: heated at 100° C. for 8 hours; for Percent remainder (%): 480 min; for stability (in words): compared with the conventionally-known halides
Protocol: Test compounds were heated at 100° C. for 8 hours. Changes in their appearance and their percent remainders were studied.

adenylate cyclase [2] = assay: Inhibition of adenylate cyclase activity of splenic lymphocytes; assay type: biochemical; conditions: 200 nM, mice
Protocol: (§1) At 200 nM concentration, 13-propylberberin bisulfate inhibits about 50% of adenylate cyclase activity of intestinal epithetial cells or splenic lymphocytes in mice.

cholera toxin = assay type: in vivo, SPF male Wister rats; conditions: secreta measured after 5 hours, rats
Solubility in water = assay type: physicochemical
adenylate cyclase [3] = assay: Inhibition of adenylate cyclase activity of intestinal epithetial cells; assay type: biochemical; conditions: 200 nM, mice
Protocol: as §1

| SMILES | Percent remainder (%) [1] [%] | stability (in words) [1] | Changes in appearance [1] | Solubility (Solubility in water) | further results |
| --- | --- | --- | --- | --- | --- |
| CCCc1c2[n+](cc3c(OC)c(OC)ccc13)CCc1cc3c(cc1-2)OCO3 [13-Propylberberine chloride, reference compound] | 48.7 |  |  |  |  |
| CCCc1c2[n+](cc3c(OC)c(OC)ccc13)CCc1cc3c(cc1-2)OCO3 [13-Propylberberine bisulfate, 13-propylberberine bisulfate] | 100.0 | extremely stable | no changes | soluble | inhibition of adenylate cyclase activity (adenylate cyclase [2]): about 50%; Inhibition rate (%) (cholera toxin; 0.5 mg/kg injected into ligated tract with 20 μg cholera toxin): 13.0%; Inhibition rate (%) (cholera toxin; 2 mg/kg injected into ligated tract with 20 μg cholera toxin): 40.0%; Solubility (Solubility in water; listed as 13-propylberberine sulfate): readily soluble in water; inhibition of adenylate cyclase activity (adenylate cyclase [3]): about 50% |
| CCCc1c2[n+](cc3c(OC)c(OC)ccc13)CCc1cc3c(cc1-2)OCO3 [13-Propylberberine bromide, 13-propylberberine bromide, reference compound] | 57.0 |  |  |  |  |
| CCCc1c2[n+](cc3c(OC)c(OC)ccc13)CCc1cc3c(cc1-2)OCO3 [13-Propylberberine iodide, reference compound] | 52.1 |  |  |  |  |
| CCCc1c2[n+](cc3c(OC)c(OC)ccc13)CCc1cc3c(cc1-2)OCO3 [13-Propylberberine primary phosphate, 13-propylberberine primary phosphate] | 99.8 | extremely stable | no changes | soluble | Solubility (Solubility in water; listed as 13-propylberberine phosphate): readily soluble in water |
| COc1ccc2cc3[n+](cc2c1OC)CCc1cc2c(cc1-3)OCO2 [Berberine chloride, reference compound] |  |  |  |  | Inhibition rate (%) (cholera toxin; 20 mg/kg injected into ligated tract with 20 μg cholera toxin): 8.0% |

Source: US4761477A (priority 1984, dated 1988)
